Assay type in all cases: cell-based
One experiment deals with T1, Fpr2 (Mus musculus, UniProt O88536).
T1 construct: WT mouse neutrophils (5 x 10^4 cells) were pre-incubated without (solid line) or with mF2Pal16; endogenous in cells; host or cells: bone marrow neutrophils of C57BL/6 wild-type mice, TNF-alpha primed
T1 sequence (O88536 1-351): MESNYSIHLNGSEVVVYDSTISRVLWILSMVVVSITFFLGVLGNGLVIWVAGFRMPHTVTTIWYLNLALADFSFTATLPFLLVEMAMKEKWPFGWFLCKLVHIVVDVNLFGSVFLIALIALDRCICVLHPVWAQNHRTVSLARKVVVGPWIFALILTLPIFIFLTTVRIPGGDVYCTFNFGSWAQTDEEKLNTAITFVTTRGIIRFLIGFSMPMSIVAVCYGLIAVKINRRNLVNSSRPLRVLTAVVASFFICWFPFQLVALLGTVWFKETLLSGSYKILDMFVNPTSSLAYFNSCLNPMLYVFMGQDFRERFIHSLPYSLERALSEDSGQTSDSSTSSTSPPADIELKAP
Nature of the experiment: Inhibition of F1Pal16-induced superoxide release, WT mouse neutrophils. To be noted: mF2Pal16 250 nM, 5 min pre-incubation, F1Pal16 500 nM, one of three experiments. The text has this:
(§1) Mice (8–12 weeks of age) were killed by cervical dislocation, the femurs and tibias were removed and freed of soft tissue attachments, and the extreme distal tip of each extremity was cut off. KRG without Ca^2+ and Mg^2+ (KRG-) was forced through the bone by using a 1-mL syringe with a 27-gauge needle. After dispersing cell clumps and removing the debris, the bone marrow granulocytes were isolated according to an earlier described procedure with some modifications. Briefly, a cell suspension in 2 mL of KRG- was laid on top of a three-layer Percoll gradient (1.095, 1.085, and 1.070 g/mL). The density of each Percoll solution was verified using density marker beads. […] The cell number and population of bone marrow cells were determined by flow cytometry based on forward scatter (size) and side scatter (density) localization.
(§2) NADPH-oxidase activity was determined using an isoluminol and HRP-enhanced chemiluminescence (CL) system that allow for the determination of superoxide production. The CL activity was measured in a six-channel Biolumat LB 9505 apparatus (Berthold Co., Wildbad, Germany), using disposable 4-mL polypropylene tubes with 1 mL reaction mixture. […] The light emission was recorded continuously over time and presented as superoxide production (in arbitrary light units, cpm x10^-6) as a function of time (min). […]

Experiment [1] deals with Fpr1. Nature of the experiment: Inhibition of fMIFL-induced superoxide release, WT mouse neutrophils. To be noted: fMIFL 10 nM; mF2Pal16 1 μM (inset) or 500 nM.
Description: as §1, §2

In experiment [2] the test system is FPR1. Nature of the experiment: Inhibition of fMLF-induced superoxide release, human neutrophils. Conditions: pepducin 1 μM; fMLF 50 nM.
Description: (§3) Human peripheral blood neutrophils were isolated from buffy coats from healthy blood donors using dextran sedimentation and Ficoll-Paque gradient centrifugation as described. The remaining erythrocytes were disrupted by hypotonic lysis and the neutrophils were washed twice, suspended in KRG and, stored on melting ice until use. This isolation process permits cells to be purified with minimal granule mobilization. The buffy coats were obtained from the blood bank at Sahlgrenska University Hospital. Ethics approval was not needed since the buffy coats were provided anonymously and could not be traced back to a specific individual. This is in line with Swedish legislation section code 4§ 3p SFS 2003:460 (Lag om etikprövning av forskning som avser människor).
as §2, with “(min). The activity before stimulus addition was recorded as basal line and this activity was not changed in vehicle control samples.” for “(min).”

Another experiment addresses T2, mouse neutrophils (Mus musculus, UniProt O88536).
T2 sequence (O88536 1-351): T1 sequence (O88536 1-351)
Nature of the experiment: Direct activation: superoxide release (isoluminol/HRP chemiluminescence), WT mouse bone marrow neutrophils. To be noted: WT mouse (C57BL/6) bone marrow neutrophils, TNF-α primed, 5 x 10^4 cells, 37°C, isoluminol/HRP CL, peak activity; pepducin 1 μM in figures. The text has this: Mice (8–12 weeks of age) were killed by cervical dislocation, the femurs and tibias were removed and freed of soft tissue attachments, and the extreme distal tip of each extremity was cut off. KRG without Ca^2+ and Mg^2+ (KRG-) was forced through the bone by using a 1-mL syringe with a 27-gauge needle. After dispersing cell clumps and removing the debris, the bone marrow granulocytes were isolated according to an earlier described procedure with some modifications. Briefly, a cell suspension in 2 mL of KRG- was laid on top of a three-layer Percoll gradient (1.095, 1.085, and 1.070 g/mL). The density of each Percoll solution was verified using density marker beads. After centrifugation at 500 × g for 30 min at 4°C in a swinging bucket rotor, the lowest band (1.085/1.095 g/mL interface) was collected as the neutrophil fraction. After washing with KRG-, remaining red blood cells were eliminated by hypotonic lysis. After a final wash with KRG-, the cells were resuspended in KRG. The cell number and population of bone marrow cells were determined by flow cytometry based on forward scatter (size) and side scatter (density) localization.
NADPH-oxidase activity was determined using an isoluminol and HRP-enhanced chemiluminescence (CL) system that allow for the determination of superoxide production. The CL activity was measured in a six-channel Biolumat LB 9505 apparatus (Berthold Co., Wildbad, Germany), using disposable 4-mL polypropylene tubes with 1 mL reaction mixture. The tubes contained 4 U HRP and 10 μg/mL isoluminol together with the cells that were equilibrated in the Biolumat for 5 min at 37°C, after which the stimulus solution (100 μL) was added. The light emission was recorded continuously over time and presented as superoxide production (in arbitrary light units, cpm x10^-6) as a function of time (min). The activity before stimulus addition was recorded as basal line and this activity was not changed in vehicle control samples. Since the FPR/Fpr-mediated superoxide production with respect to the onset and decline are very similar, the peak activities were used to compare the responses induced.
Naïve bone marrow cells produce very low levels of superoxide upon stimulation and to increase this production the cells were routinely primed for one hour at RT followed by TNF-α (10 ng/mL, final concentration) priming for a period of 20 min at 37°C [10]. The cells were then kept on ice until further analysis, as described above. The reason for choosing the chemiluminescence based NADPH-oxidase assay system was that very few cells are required, allowing us to monitor and quantify receptor-mediated events with the limited number of mouse bone marrow neutrophils available.
Data analysis was performed using Graph Pad Prism 7.0. The EC50/IC50 values were determined from experiments in which the activities were normalized to the response induced by maximal response or induced by agonist in the absence of inhibitor. The statistical analysis was performed on raw data using Student’s t-test when two groups were compared or one-way ANOVA with Dunnett’s multiple comparisons test in comparison to the control response when three groups were compared. * p ≤ 0.05 was considered significant.

The next experiment relates to human neutrophils. The experiment is described as follows: Direct activation: superoxide release (isoluminol/HRP chemiluminescence), human neutrophils. Conditions: 10^5 cells, 37°C, isoluminol/HRP CL, pepducin 1 μM.
Description: as §3
as §2, with “(min). The activity before stimulus addition was recorded as basal line and this activity was not changed in vehicle control samples.” for “(min).”

Residues, ends and D or L forms follow the SMILES beside them. *: point of attachment. Palmitoyl = CCCCCCCCCCCCCCCC(=O)*

For `CCCCCCCCCCCCCCCC(=O)N[C@@H](CCCCN)C(=O)N[C@H](C(=O)N[C@@H](CC(N)=O)C(=O)N[C@@H](CCCNC(=N)N)C(=O)N[C@@H](CCCNC(=N)N)C(=O)N[C@@H](CC(N)=O)C(=O)N[C@@H](CC(C)C)C(=O)N[C@H](C(=O)N[C@@H](CC(N)=O)C(=O)N[C@@H](CO)C(=O)N[C@@H](CO)C(=O)N[C@@H](CCCNC(=N)N)C(=O)N1CCC[C@H]1C(=O)N[C@@H](CC(C)C)C(=O)N[C@@H](CCCNC(=N)N)C(=O)N[C@H](C(=O)O)C(C)C)C(C)C)[C@@H](C)CC` [mF2Pal16] (Palmitoyl-KINRRNLVNSSRPLRV-OH; C-terminus assumed), the “effect of mF2Pal16 on F1Pal16 response, WT mouse neutrophils” value is “inhibits the activity of F1Pal16 in mouse neutrophils” on Fpr2 and “the response was sensitive to the pepducin inhibitor mF2pal16” at Fpr2 (listed as mF2pal16). In addition, in the experiment with Fpr1 [1], the “effect on fMIFL response, mouse neutrophils” value is “no effect”. For the same compound, the “effect on fMLF response, human neutrophils” value in the experiment on FPR1 [2] is recorded as “lack of inhibitory effect”. The “superoxide release / activation of WT mouse neutrophils” value on mouse neutrophils is given as “No activation of mouse neutrophils”. The “superoxide release / activation of human neutrophils” value with human neutrophils is listed as “did not activate human neutrophils to produce superoxide”.
